Test results taken from patent publication US20240043435A1, “TYK-2 INHIBITOR” (BEIGENE, LTD., priority 2020, published 2024).
pIC50: −log10 of the molar value.

molecular target: T1, TYK2-JH2 (aa 575-869, in-house) protein (Homo sapiens, UniProt P29597); assay: TYK2-JH2 biochemical assay (HTRF probe displacement); assay type: binding; settings: Biochemical assay; read-out: TYK2-JH2 IC50
T1 construct: TYK2-JH2 (aa 575-869, in-house) protein; made in house
Procedure: Assay A: TYK2-JH2 Biochemical Assay
Compounds disclosed herein were tested for blocking of TYK2-JH2 (aa 575-869, in-house) protein with its probe in an assay based on Homogeneous Time Resolved Fluorescence. Compound dilution is done according to the following protocol: (1) Prepare 500× compounds solution in DMSO from 500 uM by 5-fold dilution, total 10 doses were included; (2) Prepare 10× compounds solution in an assay buffer containing 20 mM HEPES, pH 7.5, 10 mM MgCl2, 0.005% BSA, 2 mM DTT, 0.015% Brij-35 by transferring 1 μl serial 500× stock solution into 49 μl assay buffer. […] of 0.2 nM recombinant TYK2-JH2 protein was pre-incubated with 1 μl of 10× serial dilution of compounds at room temperature for 0.5 hour. […] The HTRF signals (ex337 nm, em620 nm/665 nm) were read on BMG PHERAstar FS instrument. The inhibition percentage of TYK2 interaction with its probe in presence of increasing concentrations of compounds was calculated based on the ratio of fluorescence at 615 nm to that at 665 nm. The IC50 for each compound was derived from fitting the data to the four-parameter logistic equation by Dotmatics.

T1 sequence (P29597 575-869): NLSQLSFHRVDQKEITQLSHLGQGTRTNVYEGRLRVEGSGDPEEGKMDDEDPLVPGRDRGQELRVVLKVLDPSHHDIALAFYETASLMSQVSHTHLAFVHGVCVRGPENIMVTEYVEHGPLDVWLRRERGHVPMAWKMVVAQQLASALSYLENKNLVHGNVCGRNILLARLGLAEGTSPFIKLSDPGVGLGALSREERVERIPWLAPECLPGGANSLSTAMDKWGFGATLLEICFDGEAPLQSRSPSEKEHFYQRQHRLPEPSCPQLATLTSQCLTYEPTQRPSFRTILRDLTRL

SMILES	pIC50
CC(=O)Nc1cc(Nc2cc(N3CCC(C)(O)C3)cc(S(C)(=O)=O)n2)c(-c2ccc3c(n2)OCC(C)(C)O3)cn1 (stereo not shown) [Example Q57, N-(5-(2,2-dimethyl-2,3-dihydro-[1,4]dioxino[2,3-b]pyridin-6-yl)-4-((4-(3-hydroxy-3-methylpyrrolidin-1-yl)-6-(methylsulfonyl)pyridin-2-yl)amino)pyridin-2-yl) acetamide]	10.51
CC(=O)Nc1cc(Nc2cc(N3CC[C@@H](OCCO)C3)cc(S(C)(=O)=O)n2)c(-c2ccc3c(n2)OCC(C)(C)O3)cn1 [Example Q59, (R)-N-(5-(2,2-dimethyl-2,3-dihydro-[1,4]dioxino[2,3-b]pyridin-6-yl)-4-((4-(3-(2-hydroxyethoxy)pyrrolidin-1-yl)-6-(methylsulfonyl)pyridin-2-yl)amino)pyridin-2-yl) acetamide]	10.48
CC(=O)Nc1cc(Nc2cc(N3CC[C@H](OCCO)C3)cc(S(C)(=O)=O)n2)c(-c2ccc3c(n2)OCC(C)(C)O3)cn1 [Example Q61, (S)-N-(5-(2,2-dimethyl-2,3-dihydro-[1,4]dioxino[2,3-b]pyridin-6-yl)-4-((4-(3-(2-hydroxyethoxy)pyrrolidin-1-yl)-6-(methylsulfonyl)pyridin-2-yl)amino)pyridin-2-yl)acetamide]	10.66
CC(=O)Nc1cc(Nc2cc(-c3c(C)noc3C)cc(S(C)(=O)=O)n2)c(-c2ccc3c(n2)OCC(C)(C)O3)cn1 [Example Q99, N-(5-(2,2-dimethyl-2,3-dihydro-[1,4]dioxino[2,3-b]pyridin-6-yl)-4-((4-(3,5-dimethylisoxazol-4-yl)-6-(methylsulfonyl)pyridin-2-yl)amino)pyridin-2-yl)acetamide]	10.48
CC(=O)Nc1cc(Nc2cc(N3CC4CC4C3)cc(S(C)(=O)=O)n2)c(-c2ccc3c(n2)OCC(C)(C)O3)cn1 (stereo not shown) [Example Q106, N-(4-((4-(3-azabicyclo[3.1.0]hexan-3-yl)-6-(methylsulfonyl)pyridin-2-yl)amino)-5-(2,2-dimethyl-2,3-dihydro-[1,4]dioxino[2,3-b]pyridin-6-yl)pyridin-2-yl)acetamide]	10.82

Second part, the compound after the results:

pIC50	SMILES
10.01	CC(=O)Nc1cc(Nc2cc(C3CCOCC3)cc(S(C)(=O)=O)n2)c(-c2ccc3c(n2)OCC(C)(C)O3)nn1 [Example Q58, N-(6-(2,2-dimethyl-2,3-dihydro-[1,4]dioxino[2,3-b]pyridin-6-yl)-5-((6-(methylsulfonyl)-4-(tetrahydro-2H-pyran-4-yl)pyridin-2-yl)amino)pyridazin-3-yl)acetamide]
10.23	CC(=O)Nc1cc(Nc2cc(C3CCN(CC(F)(F)F)CC3)cc(S(C)(=O)=O)n2)c(-c2ccc3c(n2)OCC(C)(C)O3)cn1 [Example Q60, N-(5-(2,2-dimethyl-2,3-dihydro-[1,4]dioxino[2,3-b]pyridin-6-yl)-4-((6-(methylsulfonyl)-4-(1-(2,2,2-trifluoroethyl)piperidin-4-yl)pyridin-2-yl)amino)pyridin-2-yl) acetamide]
9.49	CC(=O)Nc1cc(Nc2ccc(C3CCOCC3)c(S(C)(=O)=O)n2)c(-c2ccc3c(n2)OCC(C)(C)O3)cn1 [Example Q79, N-(5-(2,2-dimethyl-2,3-dihydro-[1,4]dioxino[2,3-b]pyridin-6-yl)-4-((6-(methylsulfonyl)-5-(tetrahydro-2H-pyran-4-yl)pyridin-2-yl)amino)pyridin-2-yl)acetamide]
10.51	CC(=O)Nc1cc(Nc2cc(C3CCOC3)cc(S(C)(=O)=O)n2)c(-c2ccc3c(n2)OCC(C)(C)O3)cn1 (stereo not shown) [Example Q86, N-(5-(2,2-dimethyl-2,3-dihydro-[1,4]dioxino[2,3-b]pyridin-6-yl)-4-((6-(methylsulfonyl)-4-(tetrahydrofuran-3-yl)pyridin-2-yl)amino)pyridin-2-yl)acetamde]
10.54	CC(=O)Nc1cc(Nc2cc(N3CCCC3)cc(S(C)(=O)=O)n2)c(-c2ccc3c(n2)OCC(C)(C)O3)cn1 [Example Q104, N-(5-(2,2-dimethyl-2,3-dihydro-[1,4]dioxino[2,3-b]pyridin-6-yl)-4-((6-(methylsulfonyl)-4-(pyrrolidin-1-yl)pyridin-2-yl)amino)pyridin-2-yl)acetamide]
